The Kd is a measure of binding affinity in units of concentration.

Positions count from the first letter of the chain named.

For test [1], the target named is T1, peroxisome proliferator-activated receptor α (PPARα) (Homo sapiens, UniProt Q07869, T283A).
T1 construct: gene PPARA
T1 sequence (Q07869 200-468 T283A): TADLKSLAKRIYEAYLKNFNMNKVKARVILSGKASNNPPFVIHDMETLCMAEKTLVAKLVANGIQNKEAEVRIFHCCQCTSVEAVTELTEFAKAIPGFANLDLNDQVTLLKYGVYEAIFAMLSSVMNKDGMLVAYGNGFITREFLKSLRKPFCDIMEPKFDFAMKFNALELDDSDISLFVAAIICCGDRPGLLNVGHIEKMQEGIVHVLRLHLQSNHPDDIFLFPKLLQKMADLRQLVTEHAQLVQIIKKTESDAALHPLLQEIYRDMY
The test can be described thus: microscale thermophoresis with purified recombinant EGFP-PPARα LBD T283A. The format is binding. Background: In MST a laser heats a spot of the sample, and binding alters the fluorescence response.

In test [2] the target is T2, peroxisome proliferator-activated receptor α (PPARα) (Homo sapiens, UniProt Q07869).
T2 construct: gene PPARA
T2 sequence (Q07869 200-468): T1 sequence (Q07869 200-468 T283A) with A84T
The test can be described thus: microscale thermophoresis with purified recombinant EGFP-PPARα LBD. It counts as binding.

For the compound `Cc1cccc2c3c(ccc12)C1=C(C(=O)C3=O)[C@@H](C)CO1` [DhT, dihydrotanshinone I], the dissociation constant Kd in test [1] worked out at 32.9 ± 6.1 µM; in test [2] it was 1.66 ± 0.5 µM.
